From PubChem BioAssay (NCI)
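Tested at 5 concentrations; 48 h exposure; 96-well plates; endpoints linearly interpolated, else capped at highest concentration. TGI: total growth inhibition.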

Tests used:
Test in all cases: NCI-60 cell line screen, 48 h
[1] = tested on: MOLT-4 leukemia
[2] = tested on: HL-60(TB) leukemia
[3] = tested on: OVCAR-8 ovarian
[4] = tested on: M14 melanoma
[5] = tested on: SN12C renal
[6] = tested on: U251 CNS
[7] = tested on: COLO 205 colon
[8] = tested on: UACC-257 melanoma
[9] = tested on: TK-10 renal
[10] = tested on: SNB-75 CNS
[11] = tested on: ACHN renal
[12] = tested on: HCC-2998 colon
[13] = tested on: SK-OV-3 ovarian
[14] = tested on: SNB-19 CNS
[15] = tested on: NCI-H23 lung
[16] = tested on: SK-MEL-5 melanoma
[17] = tested on: SW-620 colon
[18] = tested on: SF-539 CNS
[19] = tested on: OVCAR-5 ovarian
[20] = tested on: SK-MEL-28 melanoma

| Structure (SMILES) | TGI [1] | TGI [2] | TGI [3] | TGI [4] | TGI [5] | TGI [6] | TGI [7] | TGI [8] | TGI [9] | TGI [10] | TGI [11] | TGI [12] | TGI [13] | TGI [14] | TGI [15] | TGI [16] | TGI [17] | TGI [18] | TGI [19] | TGI [20] |
| --- | --- | --- | --- | --- | --- | --- | --- | --- | --- | --- | --- | --- | --- | --- | --- | --- | --- | --- | --- | --- |
| Cc1cn(C2CC(n3cc(Cn4ccc(=O)[nH]c4=O)nn3)C(CO)O2)c(=O)[nH]c1=O (stereo not given) | > 100 µM | > 100 µM | > 100 µM | > 100 µM | > 100 µM | > 100 µM | > 100 µM | > 100 µM | > 100 µM | > 100 µM | > 100 µM | > 100 µM | > 100 µM | > 100 µM | > 100 µM | > 100 µM | > 100 µM | > 100 µM | > 100 µM | > 100 µM |
| C=C(/C=C/C=C(\C)CCC=C(C)C)[C@@H]1CC[C@]2([C@H](CCCO)/C(=C(/C)C=O)CC[C@]2(C)O)[C@@H]1O | 29.3 µM | 35.4 µM | 46.5 µM | 48.2 µM | 31.4 µM | 28.5 µM | 26 µM | 59.5 µM | 66.2 µM | 99.4 µM | > 100 µM | 35.6 µM | > 100 µM | 52.7 µM | 45.7 µM | 53.1 µM | 40.7 µM | 25.1 µM | > 100 µM | 28.4 µM |
| O=C1c2ccccc2N(O)C1(c1ccccc1)C1CCCC=C1N1CCOCC1 (stereo not given) | > 100 µM | > 100 µM | > 100 µM | > 100 µM | > 100 µM | > 100 µM | > 100 µM | > 100 µM | > 100 µM | > 100 µM | > 100 µM | > 100 µM | > 100 µM | > 100 µM | > 100 µM | > 100 µM | > 100 µM | > 100 µM | > 100 µM | > 100 µM |
